Test results taken from ChEMBL document CHEMBL5500344, “Design, synthesis and biological evaluation of matrine contains benzimidazole derivatives as dual TOPOI and PARP inhibitors for cancer therapy” (Eur J Med Chem, 2024).
Activity calls are given as the source filed them. The calls are words filed in the database; no cut-off is given here.

Legend:
L02 = assay: Antiproliferative activity against human L02 cells assessed as inhibition of cell growth incubated for 48 hrs by MTT assay; format: functional, cell-based; conditions: L02, 48 h
HeLa = assay: Antiproliferative activity against human HeLa cells assessed as inhibition of cell growth incubated for 48 hrs by MTT assay; format: functional, cell-based
A549 = assay: Antiproliferative activity against human A549 cells assessed as inhibition of cell growth incubated for 48 hrs by MTT assay; format: functional, cell-based; conditions: A549, 48 h
HGC-27 = assay: Antiproliferative activity against human HGC-27 cells assessed as inhibition of cell growth incubated for 48 hrs by MTT assay; format: functional, cell-based; conditions: HGC-27, 48 h, read-out: IC50
HepG2 = assay: Antiproliferative activity against human HepG2 cells assessed as inhibition of cell growth incubated for 48 hrs by MTT assay; format: functional, cell-based; conditions: HepG2, 48 h
[1] = molecular target: Poly [ADP-ribose] polymerase 1 (Homo sapiens, UniProt P09874); assay: Inhibition of PARP-1 (unknown origin) incubated for 70 mins by HT universal chemiluminescent assay
[2] = molecular target: T1, DNA topoisomerase 1 (Homo sapiens) (UniProt P11387); assay: Inhibition of human topoisomerase 1 assessed as relaxation of supercoiled pBR322 plasmid DNA at 100 uM incubated for 10 to 15 mins by EtBr staining based agarose gel electrophoresis method; conditions: time 10-15 min
T1 sequence (whole entry): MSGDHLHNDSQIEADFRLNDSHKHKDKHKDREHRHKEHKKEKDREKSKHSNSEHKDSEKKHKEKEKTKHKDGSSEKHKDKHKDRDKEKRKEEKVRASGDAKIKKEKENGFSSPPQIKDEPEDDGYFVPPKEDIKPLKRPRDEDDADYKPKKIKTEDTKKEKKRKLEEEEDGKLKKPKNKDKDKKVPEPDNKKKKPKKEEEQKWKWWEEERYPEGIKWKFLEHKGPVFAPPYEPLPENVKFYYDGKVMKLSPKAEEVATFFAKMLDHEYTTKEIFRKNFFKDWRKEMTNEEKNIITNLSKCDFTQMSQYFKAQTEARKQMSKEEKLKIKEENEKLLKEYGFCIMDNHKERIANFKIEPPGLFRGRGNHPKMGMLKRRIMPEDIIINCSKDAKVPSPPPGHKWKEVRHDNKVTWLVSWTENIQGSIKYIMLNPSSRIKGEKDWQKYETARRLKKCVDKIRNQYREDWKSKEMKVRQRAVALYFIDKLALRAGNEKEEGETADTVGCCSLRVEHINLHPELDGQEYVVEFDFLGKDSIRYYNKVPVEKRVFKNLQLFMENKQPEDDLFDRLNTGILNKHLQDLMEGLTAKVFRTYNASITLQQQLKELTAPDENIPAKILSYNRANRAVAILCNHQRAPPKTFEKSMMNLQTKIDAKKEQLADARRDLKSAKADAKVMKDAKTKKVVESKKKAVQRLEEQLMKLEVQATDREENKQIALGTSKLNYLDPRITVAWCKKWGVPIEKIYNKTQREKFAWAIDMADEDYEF

Sequence of Poly [ADP-ribose] polymerase 1 (P09874 whole entry): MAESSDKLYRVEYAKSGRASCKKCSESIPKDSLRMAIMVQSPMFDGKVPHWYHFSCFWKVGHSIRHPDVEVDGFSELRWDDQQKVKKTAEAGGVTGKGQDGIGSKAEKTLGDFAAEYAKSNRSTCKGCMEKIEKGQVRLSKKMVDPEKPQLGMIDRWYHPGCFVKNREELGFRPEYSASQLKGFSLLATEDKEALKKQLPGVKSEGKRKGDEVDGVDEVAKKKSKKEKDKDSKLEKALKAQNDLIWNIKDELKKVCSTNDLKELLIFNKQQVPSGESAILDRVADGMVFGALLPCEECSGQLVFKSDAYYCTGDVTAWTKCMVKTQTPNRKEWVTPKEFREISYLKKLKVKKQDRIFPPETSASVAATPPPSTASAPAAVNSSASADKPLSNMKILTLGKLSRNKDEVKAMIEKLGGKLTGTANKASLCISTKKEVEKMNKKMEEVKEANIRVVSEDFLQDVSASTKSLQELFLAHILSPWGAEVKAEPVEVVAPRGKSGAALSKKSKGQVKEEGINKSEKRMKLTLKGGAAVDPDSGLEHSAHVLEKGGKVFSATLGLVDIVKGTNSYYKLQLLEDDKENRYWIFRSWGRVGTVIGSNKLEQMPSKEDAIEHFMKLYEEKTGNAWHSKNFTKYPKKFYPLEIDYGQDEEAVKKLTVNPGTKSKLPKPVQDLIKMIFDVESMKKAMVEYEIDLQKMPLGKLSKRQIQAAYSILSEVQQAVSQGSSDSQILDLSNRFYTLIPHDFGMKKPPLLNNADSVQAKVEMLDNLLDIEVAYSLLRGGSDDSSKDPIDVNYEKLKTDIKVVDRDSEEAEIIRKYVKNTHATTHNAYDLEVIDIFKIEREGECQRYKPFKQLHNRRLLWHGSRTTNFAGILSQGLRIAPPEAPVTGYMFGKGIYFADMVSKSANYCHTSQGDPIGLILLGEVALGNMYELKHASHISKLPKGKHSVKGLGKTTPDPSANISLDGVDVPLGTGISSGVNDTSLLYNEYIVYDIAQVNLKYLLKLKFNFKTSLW

IC50 (HeLa) [µM] | IC50 (A549) [µM] | IC50 (HepG2) [µM] | IC50 [1] [µM] | inhibition [2] | Structure (SMILES) | IC50 (L02) [µM] | IC50 (HGC-27) [µM]
62.4 | 57.3 | 9.17 | 14.4 | – | O=S(=O)(c1ccc(C(F)(F)F)cc1)N1C[C@@H]2CCCN3CCC[C@@H]([C@H]23)[C@H]1CCCc1nc2cc(Cl)ccc2n1S(=O)(=O)c1ccc(C(F)(F)F)cc1 | > 64 | 8.65
7.45 | 10.8 | 4.92 | 1.41 | Active | Cc1ccc(S(=O)(=O)N2C[C@@H]3CCCN4CCC[C@@H]([C@H]34)[C@H]2CCCc2nc3cc(Br)ccc3n2S(=O)(=O)c2ccc(C)cc2)cc1 | > 64 | 6.36
15.5 | 20.6 | 23.8 | – | – | Cn1c(CCCNC(=O)CCC[C@@H]2[C@H]3CCCN4CCC[C@@H](CN2C(=O)OCC2c5ccccc5-c5ccccc52)[C@@H]34)nc2ccc([N+](=O)[O-])cc21 | – | 16.8
70.1 | 69.3 | 52.8 | – | – | CC(C)(C)c1ccc(S(=O)(=O)N2C[C@@H]3CCCN4CCC[C@@H]([C@H]34)[C@H]2CCCc2nc3ccc([N+](=O)[O-])cc3n2S(=O)(=O)c2ccc(C(C)(C)C)cc2)cc1 | – | 47.8
18.1 | 15.2 | 13.7 | – | – | C[C@]1(c2nc3c(C(N)=O)cccc3[nH]2)CCCN1 [VELIPARIB] | – | 16
13.2 | 18.7 | 22.5 | – | – | O=C(CCC[C@@H]1[C@H]2CCCN3CCC[C@@H](CN1C(=O)OCC1c4ccccc4-c4ccccc41)[C@@H]23)NCCCc1nc2ccc(C(F)(F)F)cc2[nH]1 | – | 19.7
15.1 | 20.8 | 11.6 | – | – | O=C(OCC1c2ccccc2-c2ccccc21)N1C[C@@H]2CCCN3CCC[C@@H]([C@H]23)[C@H]1CCCc1nc2ccc(Br)cc2[nH]1 | – | 10.4
71.2 | 68.2 | 32.2 | – | – | O=S(=O)(c1ccc(Br)cc1)N1C[C@@H]2CCCN3CCC[C@@H]([C@H]23)[C@H]1CCCc1nc2ccc(Cl)cc2n1S(=O)(=O)c1ccc(Br)cc1 | – | 29.3
> 80 | > 80 | > 80 | – | – | O=S(=O)(c1ccc(C(F)(F)F)cc1)N1C[C@@H]2CCCN3CCC[C@@H]([C@H]23)[C@H]1CCCc1nc2ccc(Cl)cc2n1S(=O)(=O)c1ccc(C(F)(F)F)cc1 | – | 70.3

The next lines start with the compound.

Structure (SMILES) | IC50 (HeLa) [µM] | IC50 (A549) [µM] | IC50 (HepG2) [µM] | IC50 [1] [µM] | inhibition [2] | IC50 (L02) [µM] | IC50 (HGC-27) [µM]
O=S(=O)(c1ccc(Cl)cc1)N1C[C@@H]2CCCN3CCC[C@@H]([C@H]23)[C@H]1CCCc1nc2ccc(Cl)cc2n1S(=O)(=O)c1ccc(Cl)cc1 | 53.2 | 46.1 | 11.2 | – | – | – | 12.1
Cc1ccc(S(=O)(=O)N2C[C@@H]3CCCN4CCC[C@@H]([C@H]34)[C@H]2CCCc2nc3ccccc3n2S(=O)(=O)c2ccc(C)cc2)cc1 | 49.6 | 69.9 | 13.5 | – | – | – | 18.2
Cn1c(CCC[C@@H]2[C@H]3CCCN4CCC[C@@H](CN2C(=O)OCC2c5ccccc5-c5ccccc52)[C@@H]34)nc2ccc([N+](=O)[O-])cc21 | 23.8 | 31 | 13.8 | – | – | – | 11.1
O=S(=O)(c1ccc(Cl)cc1)N1C[C@@H]2CCCN3CCC[C@@H]([C@H]23)[C@H]1CCCc1nc2cc(Cl)ccc2n1S(=O)(=O)c1ccc(Cl)cc1 | > 80 | 68.3 | 21.6 | – | – | – | 18.4
O=C(OCC1c2ccccc2-c2ccccc21)N1C[C@@H]2CCCN3CCC[C@@H]([C@H]23)[C@H]1CCCc1nc2cc(Cl)c(Cl)cc2[nH]1 | 8.46 | 13.2 | 10.8 | 0.28 | Active | > 64 | 9.78
Cc1ccc(S(=O)(=O)N2C[C@@H]3CCCN4CCC[C@@H]([C@H]34)[C@H]2CCCc2nc3ccc([N+](=O)[O-])cc3n2S(=O)(=O)c2ccc(C)cc2)cc1 | 71.8 | 74.2 | 40 | – | – | – | 40.2
O=S(=O)(c1cccc2ccccc12)N1C[C@@H]2CCCN3CCC[C@@H]([C@H]23)[C@H]1CCCc1nc2ccc(F)cc2n1S(=O)(=O)c1cccc2ccccc12 | 40 | 62.4 | 19.8 | – | – | – | 12.4
O=C(CCC[C@@H]1[C@H]2CCCN3CCC[C@@H](CN1C(=O)OCC1c4ccccc4-c4ccccc41)[C@@H]23)NCCCc1nc2ccccc2[nH]1 | 21.7 | 30.7 | 37.4 | – | – | – | 24.4
Cc1ccc(S(=O)(=O)N2C[C@@H]3CCCN4CCC[C@@H]([C@H]34)[C@H]2CCCc2nc3cc([N+](=O)[O-])ccc3n2S(=O)(=O)c2ccc(C)cc2)cc1 | > 80 | 53.2 | 52.3 | – | – | – | 47.4
O=C(OCC1c2ccccc2-c2ccccc21)N1C[C@@H]2CCCN3CCC[C@@H]([C@H]23)[C@H]1CCCc1nc2ccc(C(F)(F)F)cc2[nH]1 | 25.5 | 33.6 | 27.7 | – | – | – | 25.6
O=C(CCC[C@@H]1[C@H]2CCCN3CCC[C@@H](CN1C(=O)OCC1c4ccccc4-c4ccccc41)[C@@H]23)NCCCc1nc2ccc(F)cc2[nH]1 | 16 | 11.8 | 6.69 | > 16 | Active | > 64 | 8.12
O=C(OCC1c2ccccc2-c2ccccc21)N1C[C@@H]2CCCN3CCC[C@@H]([C@H]23)[C@H]1CCCc1nc2ccc(C(F)(F)F)cc2n1C(=O)OCC1c2ccccc2-c2ccccc21 | 21.2 | 19 | 28.6 | – | – | – | 27.8
CC(C)(C)c1ccc(S(=O)(=O)N2C[C@@H]3CCCN4CCC[C@@H]([C@H]34)[C@H]2CCCc2nc3ccc(Cl)cc3n2S(=O)(=O)c2ccc(C(C)(C)C)cc2)cc1 | 78.5 | 67.2 | 70.7 | – | – | – | 60.3
CC(C)(C)c1ccc(S(=O)(=O)N2C[C@@H]3CCCN4CCC[C@@H]([C@H]34)[C@H]2CCCc2nc3cc(Cl)ccc3n2S(=O)(=O)c2ccc(C(C)(C)C)cc2)cc1 | 66.3 | 77.5 | > 80 | – | – | – | 58.9
CC(C)(C)c1ccc(S(=O)(=O)N2C[C@@H]3CCCN4CCC[C@@H]([C@H]34)[C@H]2CCCc2nc3ccccc3n2S(=O)(=O)c2ccc(C(C)(C)C)cc2)cc1 | 55.6 | 59.7 | 11.6 | – | – | – | 22.2
CC(C)(C)c1ccc(S(=O)(=O)N2C[C@@H]3CCCN4CCC[C@@H]([C@H]34)[C@H]2CCCc2nc3cc([N+](=O)[O-])ccc3n2S(=O)(=O)c2ccc(C(C)(C)C)cc2)cc1 | 65.6 | 62.8 | 50.2 | – | – | – | 44.2
O=C(OCC1c2ccccc2-c2ccccc21)N1C[C@@H]2CCCN3CCC[C@@H]([C@H]23)[C@H]1CCCc1nc2ccc(Cl)cc2[nH]1 | 20.4 | 36.3 | 19.7 | – | – | – | 15.2
O=C(OCC1c2ccccc2-c2ccccc21)N1C[C@@H]2CCCN3CCC[C@@H]([C@H]23)[C@H]1CCCc1nc2ccccc2n1C(=O)OCC1c2ccccc2-c2ccccc21 | 16.6 | 24.1 | 16.5 | – | – | – | 13.8
Cc1ccc(S(=O)(=O)N2C[C@@H]3CCCN4CCC[C@@H]([C@H]34)[C@H]2CCCc2nc3ccc(Br)cc3n2S(=O)(=O)c2ccc(C)cc2)cc1 | 8.56 | 12.3 | 5.89 | 4.17 | – | > 64 | 9.38
O=S(=O)(c1cccc2ccccc12)N1C[C@@H]2CCCN3CCC[C@@H]([C@H]23)[C@H]1CCCc1nc2cc(F)ccc2n1S(=O)(=O)c1cccc2ccccc12 | 10.9 | 16.9 | 6.85 | 13.8 | – | > 64 | 7.56
O=S(=O)(c1ccc(Br)cc1)N1C[C@@H]2CCCN3CCC[C@@H]([C@H]23)[C@H]1CCCc1nc2cc(Cl)ccc2n1S(=O)(=O)c1ccc(Br)cc1 | 59.6 | 79.9 | > 80 | – | – | – | 77.2
